Measured values from patent US6593094B2, “Compositions to enhance the efficacy and safety of bio-pharmaceutical drugs” (priority 1992, dated 2003).

Key:
mice = conditions: i.v. in mice; cited from earlier work
beta-1-receptors = molecular target: T1, beta-1-receptors (Rattus norvegicus, UniProt P18090); test: in vivo cardiac response (dP/dt, LVP, HR) in anesthetized rat during infusion; conditions: i.v. infusion at varying rates
T1 construct: from tissue; host or cells: heart of anesthetized rat, in vivo (left ventricular pressure, dP/dt, heart rate)
T1 sequence (P18090 whole entry, the tested form may be a part): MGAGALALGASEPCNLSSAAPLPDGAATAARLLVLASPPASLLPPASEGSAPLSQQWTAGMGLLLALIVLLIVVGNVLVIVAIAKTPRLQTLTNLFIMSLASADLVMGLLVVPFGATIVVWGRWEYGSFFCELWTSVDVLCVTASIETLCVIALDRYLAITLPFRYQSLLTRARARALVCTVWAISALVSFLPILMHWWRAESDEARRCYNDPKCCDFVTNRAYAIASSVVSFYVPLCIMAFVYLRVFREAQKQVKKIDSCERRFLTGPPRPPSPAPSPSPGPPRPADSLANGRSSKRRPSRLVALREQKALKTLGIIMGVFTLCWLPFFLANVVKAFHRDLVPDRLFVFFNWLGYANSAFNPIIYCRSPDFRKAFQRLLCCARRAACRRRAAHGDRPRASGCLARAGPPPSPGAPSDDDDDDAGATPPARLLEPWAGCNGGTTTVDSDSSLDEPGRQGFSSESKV
Method: Following sedation, the neck of the rat was incised and a tracheotomy was performed, inserting a 14-gauge angiocatheter sheath into the trachea of the rat and securing it with a silk tie. The angiocatheter was connected through a small tube to a small animal respirator supplied with 1.0 liters of oxygen per minute and set to 95 breaths per minute.
The right carotid artery was next tied off, and after making a small incision, a Micro-Tip Millar pressure catheter was introduced down through the carotid artery, placing the end of the catheter into the left ventricular cavity of the rat's heart. Position of the catheter tip was determined by the waveform of the pressure reading-placement in the left ventricle was presumed when a diastolic pressure of zero mmHg and a reasonable systolic pressure (70 to 150 mmHg) was observed. […]
At this point for each rat, a baseline recording was obtained of the left ventricular pressure tracing. Segments of three to five seconds were recorded, and it was from these recorded tracings that the included figures of maximum left ventricular pressure (reported as LVP), maximum time-derivative of left ventricular pressure (dP/dT), and heart rate (HR) were later determined, by analysis with Sonometrics CardioSOFT data analysis software. […]
Again, at each rate, LVP was recorded for later analysis. […]

β2 receptor = β2 receptor (Cavia porcellus, UniProt Q8K4Z4); conditions: calculated from a fit of the isoproterenol control curve
Chain of β2 receptor (Q8K4Z4 whole entry): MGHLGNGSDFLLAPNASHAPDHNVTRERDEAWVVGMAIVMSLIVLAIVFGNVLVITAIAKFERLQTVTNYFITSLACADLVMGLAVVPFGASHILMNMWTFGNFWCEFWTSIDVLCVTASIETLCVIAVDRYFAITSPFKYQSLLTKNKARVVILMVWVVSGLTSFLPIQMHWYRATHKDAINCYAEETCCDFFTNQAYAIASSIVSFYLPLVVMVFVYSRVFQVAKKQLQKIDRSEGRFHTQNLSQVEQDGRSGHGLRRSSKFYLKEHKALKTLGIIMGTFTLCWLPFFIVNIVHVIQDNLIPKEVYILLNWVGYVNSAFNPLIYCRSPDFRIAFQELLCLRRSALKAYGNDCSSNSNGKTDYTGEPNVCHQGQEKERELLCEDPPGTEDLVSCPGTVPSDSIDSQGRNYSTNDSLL
From the text: It is noted that, in the relevant art, there exists a method for calculating drug efficacy by utilization of easily identifiable biophysical parameters. […] Specifically, the experimental data and the calculated values were compared.

Row | Compound | LD50 (mice) [mg/kg] | dP/dT response with increasing dosage (beta-1-receptors) | dP/dT response with increasing dosage (beta-1-receptors; listed as Dob) | φ=(KDLKDH/2)^−½, value of the maximum of the control curve (β2 receptor) [µM]
1 | CC(CCc1ccc(O)cc1)NCCc1ccc(O)c(O)c1 (stereo not shown) [dobutamine] | 73 | at higher dosages the dP/dT again began to decrease (desensitization) | showed a decline in response | –
2 | CC(C)NCC(O)c1ccc(O)c(O)c1 (stereo not shown) [isoproterenol] | – | – | – | 7.48
